Laboratory results published in PubChem BioAssay AID330 (DTP/NCI, 2004).
Values joined by “and” are separate entries in the source; they are usually repeats but may differ in a detail not shown here. Identical values can stand only once. Toxic doses and inconclusive results are not listed.

Test system: P388 leukemia ip, CD2F1 mice, survival T/C
Assay: NCI In Vivo Anticancer Drug Screen. Data for tumor model P388 Leukemia (intraperitoneal) in CD2F1 (CDF1) mice
Settings: endpoint: median survival time, higher = longer survival
How it was run: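 Mice carrying the transplanted tumor received test compound or vehicle. Survival was recorded in each group, and the value is the treated-group measurement divided by that of the vehicle-treated control group.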

[1] = dose: 50.0 mg/kg/injection, schedule: Q01DX005 (ip), vehicle: saline with Tween-80
[2] = dose: 100.0 mg/kg/injection, schedule: Q01DX005 (ip), vehicle: saline with Tween-80
[3] = dose: 50.0 mg/kg/injection, schedule: Q01DX005 (ip), vehicle: Klucel (hydroxypropylcellulose) (HPC)
[4] = dose: 100.0 mg/kg/injection, schedule: Q01DX005 (ip), vehicle: Klucel (hydroxypropylcellulose) (HPC)
[5] = dose: 200.0 mg/kg/injection, schedule: Q01DX005 (ip), vehicle: Klucel (hydroxypropylcellulose) (HPC)
[6] = dose: 25.0 mg/kg/injection, schedule: Q01DX005 (ip), vehicle: Klucel + Tween-80
[7] = dose: 50.0 mg/kg/injection, schedule: Q01DX005 (ip), vehicle: Klucel + Tween-80
[8] = dose: 50.0 mg/kg/injection, schedule: Q01DX009 (ip), vehicle: Klucel (hydroxypropylcellulose) (HPC)
[9] = dose: 100.0 mg/kg/injection, schedule: Q04DX002 (ip), vehicle: saline with Tween-80
[10] = dose: 200.0 mg/kg/injection, schedule: Q04DX002 (ip), vehicle: saline with Tween-80
[11] = dose: 60.0 mg/kg/injection, schedule: Q01DX005 (ip), vehicle: saline with Tween-80
[12] = dose: 120.0 mg/kg/injection, schedule: Q01DX005 (ip), vehicle: saline with Tween-80

Compound: Cc1ccc(NS(=O)(=O)c2ccc3ccccc3c2)c(C)c1
- T/C (dose: 100.0 mg/kg/injection, schedule: Q04DX003 (ip), vehicle: saline with Tween-80): 100 % of control
- T/C (dose: 200.0 mg/kg/injection, schedule: Q04DX003 (ip), vehicle: saline with Tween-80): 100 % of control
- T/C (dose: 400.0 mg/kg/injection, schedule: Q04DX003 (ip), vehicle: saline with Tween-80): 104 % of control

Compound: C=Cc1cc(=O)oc2cc(OC)ccc12
- T/C (dose: 12.5 mg/kg/injection, schedule: Q01DX005 (ip), vehicle: saline with Tween-80): 106 % of control and 94 % of control
- T/C (dose: 25.0 mg/kg/injection, schedule: Q01DX005 (ip), vehicle: saline with Tween-80): 108 % of control and 95 % of control
- T/C [1]: 105 % of control and 115 % of control and 121 % of control
- T/C [2]: 105 % of control

Compound: CC1CC2OC(/C=C/C=C/C=C\C=C\C=C\C(O)=C3\C(=O)C(C(C)C)N(C)C3=O)C(O)C2O1 (centres undefined)
- T/C (dose: 3.0 mg/kg/injection, schedule: Q01DX005 (ip), vehicle: Klucel (hydroxypropylcellulose) (HPC)): 120 % of control and 124 % of control

Compound: COC(=O)c1cn(C)c(-c2ccccc2)c1C(=O)OC
- T/C [3]: 100 % of control
- T/C [4]: 100 % of control
- T/C [5]: 97 % of control

Compound: C(=N\Nc1nnc2c(n1)[nH]c1ccccc12)/c1cccnc1
- T/C (dose: 12.5 mg/kg/injection, schedule: Q01DX005 (ip), vehicle: Klucel + Tween-80): 106 % of control
- T/C [6]: 91 % of control
- T/C [7]: 87 % of control

Compound: CCOc1ccccc1NC(=O)CC(=O)N1N=C(C)C(N=Nc2ccccc2C(=O)O)C1=O (centres undefined)
- T/C [1]: 108 % of control
- T/C [2]: 104 % of control
- T/C (dose: 200.0 mg/kg/injection, schedule: Q01DX005 (ip), vehicle: saline with Tween-80): 92 % of control

Compound: CCCN1CCc2c([nH]c3cc(OC)ccc23)C1C (centres undefined)
- T/C [1]: 100 % of control
- T/C [2]: 108 % of control

Compound: Cc1ccc(S(=O)(=O)NN=C2C(C)C(c3ccccc3)NC(c3ccccc3)C2C)cc1 (centres undefined)
- T/C (dose: 200.0 mg/kg/injection, schedule: Q01DX001 (ip), vehicle: Klucel (hydroxypropylcellulose) (HPC)): 88 % of control

Compound: CCOC(=O)C(C)(/C=N/NS(=O)(=O)c1ccc(C)cc1)c1ccccc1 (centres undefined)
- T/C [8]: 106 % of control
- T/C (dose: 100.0 mg/kg/injection, schedule: Q01DX009 (ip), vehicle: Klucel (hydroxypropylcellulose) (HPC)): 98 % of control
- T/C (dose: 200.0 mg/kg/injection, schedule: Q01DX009 (ip), vehicle: Klucel (hydroxypropylcellulose) (HPC)): 100 % of control

Compound: O[C@@]12CO[C@@H](c3ccc4c(c3)OCO4)[C@@H]1CO[C@H]2c1ccc2c(c1)OCO2
- T/C (dose: 25.0 mg/kg/injection, schedule: Q01DX005 (ip), vehicle: Klucel (hydroxypropylcellulose) (HPC)): 92 % of control
- T/C [3]: 90 % of control
- T/C [4]: 86 % of control
- T/C [5]: 95 % of control

Compound: N#Cc1cnc(N)c(C#N)c1
- T/C (dose: 25.0 mg/kg/injection, schedule: Q01DX009 (ip), vehicle: Klucel (hydroxypropylcellulose) (HPC)): 104 % of control
- T/C [8]: 104 % of control

Compound: C=C(CN(C)C)C(=O)c1ccc(OC)cc1
- T/C (dose: 0.93 mg/kg/injection, schedule: Q01DX005 (ip), vehicle: saline): 100 % of control
- T/C (dose: 1.87 mg/kg/injection, schedule: Q01DX005 (ip), vehicle: saline): 113 % of control
- T/C (dose: 3.75 mg/kg/injection, schedule: Q01DX005 (ip), vehicle: saline): 99 % of control

Compound: c1ccc(-c2ccc[n+](CCCC[n+]3cccc(-c4ccccn4)c3)c2)nc1
- T/C (dose: 7.5 mg/kg/injection, schedule: Q01DX005 (ip), vehicle: saline): 106 % of control
- T/C (dose: 15.0 mg/kg/injection, schedule: Q01DX005 (ip), vehicle: saline): 106 % of control

Compound: CCOC(=O)C12CCOC1(OC)NC(=O)C=C2C(=O)OC (centres undefined)
- T/C (dose: 100.0 mg/kg/injection, schedule: Q04DX003 (ip), vehicle: Klucel (hydroxypropylcellulose) (HPC)): 110 % of control
- T/C (dose: 200.0 mg/kg/injection, schedule: Q04DX003 (ip), vehicle: Klucel (hydroxypropylcellulose) (HPC)): 110 % of control
- T/C (dose: 400.0 mg/kg/injection, schedule: Q04DX003 (ip), vehicle: Klucel (hydroxypropylcellulose) (HPC)): 118 % of control

Compound: CC(C)NC(=O)OCc1c(COC(=O)NC(C)C)c(-c2ccc(Cl)c(Cl)c2)n2c1CSC2
- T/C [6]: 91 % of control
- T/C [7]: 88 % of control
- T/C (dose: 100.0 mg/kg/injection, schedule: Q01DX005 (ip), vehicle: Klucel + Tween-80): 87 % of control and 92 % of control
- T/C (dose: 200.0 mg/kg/injection, schedule: Q01DX005 (ip), vehicle: Klucel + Tween-80): 86 % of control and 88 % of control
- T/C (dose: 400.0 mg/kg/injection, schedule: Q01DX005 (ip), vehicle: Klucel + Tween-80): 89 % of control

Compound: N#CC(c1ccccc1)C(c1ccccc1)c1cccc2ccccc12 (centres undefined)
- T/C (dose: 6.25 mg/kg/injection, schedule: Q01DX009 (ip), vehicle: suspension in saline): 98 % of control
- T/C (dose: 12.5 mg/kg/injection, schedule: Q01DX009 (ip), vehicle: suspension in saline): 97 % of control
- T/C (dose: 25.0 mg/kg/injection, schedule: Q01DX009 (ip), vehicle: suspension in saline): 97 % of control
- T/C (dose: 50.0 mg/kg/injection, schedule: Q01DX009 (ip), vehicle: suspension in saline): 97 % of control
- T/C [9]: 104 % of control
- T/C [10]: 101 % of control
- T/C (dose: 400.0 mg/kg/injection, schedule: Q04DX002 (ip), vehicle: saline with Tween-80): 107 % of control

Compound: C=C1CC/C=C(\C)C(=O)C[C@@H]2[C@@H]1CC2(C)C
- T/C (dose: 0.37 mg/kg/injection, schedule: Q01DX009 (ip), vehicle: saline + alcohol): 106 % of control
- T/C (dose: 0.75 mg/kg/injection, schedule: Q01DX009 (ip), vehicle: saline + alcohol): 108 % of control
- T/C (dose: 1.5 mg/kg/injection, schedule: Q01DX009 (ip), vehicle: saline + alcohol): 106 % of control
- T/C (dose: 3.0 mg/kg/injection, schedule: Q01DX009 (ip), vehicle: saline + alcohol): 94 % of control
- T/C (dose: 6.0 mg/kg/injection, schedule: Q01DX009 (ip), vehicle: saline + alcohol): 98 % of control

Compound: O=C(Nc1cccnc1)c1cccc([N+](=O)[O-])c1
- T/C [11]: 100 % of control
- T/C [12]: 98 % of control
- T/C (dose: 240.0 mg/kg/injection, schedule: Q01DX005 (ip), vehicle: saline with Tween-80): 97 % of control

Compound: CC1(C)C(=O)C2=C(Nc3ccccc3C2C(C)(C)C)c2ccccc21 (centres undefined)
- T/C [3]: 99 % of control
- T/C [4]: 93 % of control
- T/C [5]: 92 % of control

Compound: COc1ccc(C2(c3ccc(OC)cc3)N=C(N(C)C)NC2=O)cc1
- T/C (dose: 50.0 mg/kg/injection, schedule: Q04DX002 (ip), vehicle: saline with Tween-80): 102 % of control
- T/C [9]: 97 % of control
- T/C [10]: 94 % of control

Compound: O=C(Cc1ccccc1)C(Br)C(Br)c1ccccc1 (centres undefined)
- T/C (dose: 6.25 mg/kg/injection, schedule: Q01DX009 (ip), vehicle: saline with Tween-80): 100 % of control
- T/C (dose: 12.5 mg/kg/injection, schedule: Q01DX009 (ip), vehicle: saline with Tween-80): 118 % of control
- T/C (dose: 25.0 mg/kg/injection, schedule: Q01DX009 (ip), vehicle: saline with Tween-80): 113 % of control

Compound: CSc1nc(NC2OC(COC(C)=O)C(OC(C)=O)C(OC(C)=O)C2OC(C)=O)c(N=CC=Nc2c(NC3OC(COC(C)=O)C(OC(C)=O)C(OC(C)=O)C3OC(C)=O)nc(SC)n(C)c2=O)c(=O)n1C (centres undefined)
- T/C [11]: 89 % of control
- T/C [12]: 91 % of control

Compound: CCOC(=O)/N=[N+](\[O-])c1ccc([N+](=O)[O-])cc1
- T/C (dose: 100.0 mg/kg/injection, schedule: Q01DX001 (ip), vehicle: Klucel (hydroxypropylcellulose) (HPC)): 95 % of control

Compound: O=C(Nc1nncs1)C(F)(F)F
- T/C (dose: 12.5 mg/kg/injection, schedule: Q01DX009 (ip), vehicle: distilled water + Tween-80): 111 % of control
- T/C (dose: 12.5 mg/kg/injection, schedule: Q01DX009 (ip), vehicle: water): 109 % of control
- T/C (dose: 25.0 mg/kg/injection, schedule: Q01DX009 (ip), vehicle: distilled water + Tween-80): 118 % of control
- T/C (dose: 50.0 mg/kg/injection, schedule: Q01DX009 (ip), vehicle: distilled water + Tween-80): 163 % of control
- T/C (dose: 50.0 mg/kg/injection, schedule: Q01DX009 (ip), vehicle: water): 159 % of control
